Source: paper PMC7062083, “Metabolite identification, tissue distribution, excretion and preclinical pharmacokinetic studies of ET-26-HCl, a new analogue of etomidate” (Royal Society Open Science, 2020)
“And” between values parts separate entries of the source, which are not always exact repeats. Equal values may be shown once.

How the values were obtained:
[1] = Metabolic stability in rat liver microsomes; type: in vitro ADME
Experimental: (§1) Samples were analysed by LC–MS/MS as mentioned above.2.1 CLint, in vitro=0.693/t1/2/Cprotein, 2.2 CLint, in vivo=CLint, in vitro×Houston×LW/1000 2.3 andCLhep in vivo=HBF × fu ×CLint, in vivo/HBF + fu ×CLint, in vivo. Where Cprotein is microsomal protein concentration (mg ml^−1); Houston is Houston factor (45 mg of microsomal protein g^−1 liver); LW is liver weight (g) (per species); HBF is hepatic blood flow (ml min^−1) (per species); fu (two places) and later is unbound fraction (fu = 1 − %protein binding).

[2] = Plasma protein binding, equilibrium dialysis, beagle dog plasma; type: in vitro ADME
Experimental: (§2) The PPB of ET-26-HCl in mouse, rat, beagle dog, monkey and human plasma was determined according to the equilibrium dialysis method. In brief, 1 ml of control plasma samples in dialysis bag was incubated in 10 ml of PBS containing ET-26-HCl at a final concentration of 2.21 × 10^2, 1.77 × 10^3 and 3.54 × 10^3 […] at 4°C with an equilibrium time of 9 h to reach the mass balance binding condition. A 100 µl aliquots of the PBS buffer and the plasma in the dialysis bag were transferred to 2 ml EP tubes and diluted to 995 µl with PBS and analysed on the LC–MS/MS system. The PPB (fppb) was calculated as follows: fppb=Din−Dout/Din×100% , where Din is the plasma drug concentration in the dialysis bag and Dout is the dialysate drug concentration.

[3] = Metabolic stability in human liver microsomes; type: in vitro ADME
Experimental: as §1

[4] = Metabolic stability in dog liver microsomes; type: in vitro ADME; conditions: for half-life: pH 7.4
Experimental: as §1

[5] = Plasma protein binding, equilibrium dialysis, monkey plasma; type: in vitro ADME
Experimental: as §2

[6] = Dose tolerance pre-experiment in rats; type: in vivo
Experimental: For the PK study of beagle dogs and excretion test of rats, how do you identify those doses? As you described, beagle dogs in the 6 groups received three doses of ET-26- HCl: 1.045 mg/kg, 2.090 mg/kg, and 4.180 mg/kg as low (L), medium (M), and high (H) dose; however, the rats received a single 4.2 mg/kg dose of ET-26-HCl. Please provide the citations or calculation of […]
Thank the reviewer for this comment. According to the “Guidelines for non-clinical pharmacokinetic studies of drugs” of China Food and Drug Administration, the in vivo pharmacokinetic studies of animals should be performed with at least three dose groups, which the high dose is preferably close to the maximum tolerated dose, and the small dose is selected based on the limits of the effective dose of the animals. […]
kg and 1.045 mg/ kg for rat and dog, respectively, according to the results of the drug effect in the early stage of the cooperation laboratory. In our pre-experiment, individual rats appeared myoclonus after the 4-fold ED50 dose administration. When given the higher dose, some rats […]
Thus, the ED50, 2-fold ED50, and 4-fold ED50 dose were used as the low, middle and high dose group for the pharmacokinetic study in our previous research. Similar dosage design was used in our present work. The middle dose (4.2 mg/kg dose of ET-26-HCl) was utilized for the excretion test in rats. […]

[7] = Plasma protein binding, equilibrium dialysis, rat plasma; type: in vitro ADME
Experimental: as §2

[8] = Metabolic stability in mouse liver microsomes; type: in vitro ADME
Experimental: as §1

[9] = Tissue distribution in Sprague Dawley rats; type: in vivo
Experimental: Concentrations of ET-26-HCl and ET-26-acid in biological samples were determined by liquid chromatography–tandem mass spectrometry (LC–MS/MS) after deproteinization with methanol. The bioanalytical method for simultaneous quantification of ET-26-HCl and ET-26-acid in the different matrix was fully validated according to FDA guidelines (electronic supplementary material, figure S1 and tables S1 and S2) in our previous study. Briefly, a 100 µl sample (plasma, tissue homogenate, bile, urine and faeces suspension) were spiked with 20 µl of IS solution and vortexed for 30 s. The mixture was then processed for protein precipitation with 300 µl methanol, followed by centrifugation at 12 000 r.p.m. for 5 min. Supernatant was collected and analysed by LC–MS/MS system.
Sprague Dawley (SD) rats (200–240 g) were provided by the Animal Facility at Sichuan University (Chengdu, China). All rats received a single 4.2 mg kg^−1 dose of ET-26-HCl intravenously. Rats were sacrificed and tissues, including heart, spleen, lung, intestine, colon, kidney, brain, fat, stomach, liver, muscle, testis and ovary were collected at 0, 1, 3, 6 and 10 h post-dosing (six rats/time-point). Tissue samples were rinsed thrice in ice cold saline, and blotted dry with filter papers. Weighed amount of tissues were homogenized in normal saline (thrice the tissue weight, w/v) and homogenates were stored at −80°C until analysis.

[10] = parameters: method as in earlier work; conditions: dog; ref results of the drug effect in the early stage of the cooperation laboratory; cited from earlier work
[11] = dog liver microsomes, Cprotein 0.33 mg ml^−1
[12] = measured concentration 654 ng ml^−1
[13] = measured concentration 2.62 × 10^3 ng ml^−1, read-out: protein binding (converted)
[14] = measured concentration 5.23 × 10^3 ng ml^−1, read-out: protein binding (converted)
[15] = overall over the three concentrations, read-out: plasma protein binding rate (converted)

SMILES: COCCOC(=O)c1cncn1[C@H](C)c1ccccc1.Cl [ET-26-HCl, (R)-2-methoxyethyl1-(1-phenylethyl)-1H-imidazole-5-carboxylate hydrochloride]
- CLint, in vitro ([1]; rat liver microsomes): 984 ml min g^−1 protein
- metabolic stability (in words) ([1]; rat liver microsomes): not metabolically stable
- CLint, in vitro ([1]; rat liver microsomes, Cprotein 0.33 mg ml^−1): 984 ± 68.6 ml min^−1 g^−1 protein
- extrapolated hepatic clearance normalized to body weight ([1]; rat, assumed body weight 0.25 kg (printed order)): 1.78 L·h/kg
- extrapolated CLhep in vivo ([1]; rat, from liver microsomes): 19.1 mL/min and 19.1 ± 0.1 mL/min
- extrapolated CLint, in vivo ([1]; rat, from liver microsomes): 443 ± 30.9 mL/min
- fraction unbound at 9 h ([2]; beagle dog plasma, overall over the three concentrations, read-out: plasma protein binding rate (converted)): 0.34
- fraction unbound at 9 h, 654 ng ml^−1 ([2]; dog plasma, measured concentration 654 ng ml^−1): 0.345
- fraction unbound at 9 h ([2]; dog plasma, measured concentration 2.62 × 10^3 ng ml^−1, read-out: protein binding (converted)): 0.369
- fraction unbound at 9 h ([2]; dog plasma, measured concentration 5.23 × 10^3 ng ml^−1, read-out: protein binding (converted)): 0.306
- CLint, in vitro ([3]; human liver microsomes): 50.0 ml min g^−1 protein
- metabolic stability (in words) ([3]; human liver microsomes): relatively stable
- CLint, in vitro ([3]; human liver microsomes, Cprotein 0.33 mg ml^−1): 50.0 ± 1.9 ml min^−1 g^−1 protein
- extrapolated CLhep in vivo ([3]; human, from liver microsomes): 1077 ± 11.8 mL/min
- extrapolated CLint, in vivo ([3]; human, from liver microsomes): 3823 ± 146.4 mL/min
- half-life ([3]; pH 7.4, human liver microsomes, Cprotein 0.33 mg ml^−1): 42 ± 1.7 min
- half-life ([4]; beagle, dog liver microsomes, Cprotein 0.33 mg ml^−1): < 5 min
- CLint, in vitro ([4]; dog liver microsomes): 466 ml min g^−1 protein
- metabolic stability (in words) ([4]; dog liver microsomes): not metabolically stable
- CLint, in vitro [4, 11]: 466 ± 12.3 ml min^−1 g^−1 protein
- extrapolated hepatic clearance normalized to body weight ([4]; dog, assumed body weight 10 kg (printed order)): 4.58 L·h/kg
- extrapolated CLhep in vivo ([4]; dog, from liver microsomes): 296 mL/min and 296 ± 0.35 mL/min
- extrapolated CLint, in vivo ([4]; dog, from liver microsomes): 6712 ± 117 mL/min
- half-life [4, 11]: 4.5 ± 0.1 min
- fraction unbound at 9 h, 654 ng ml^−1 [5, 12]: 0.387
- fraction unbound at 9 h [5, 13]: 0.375 ± 0.0269
- fraction unbound at 9 h [5, 14]: 0.357
- fraction unbound at 9 h [5, 15]: 0.373
- adverse signs observed ([6]; individual rats, after the 4-fold ED50 dose): myoclonus
- adverse signs observed ([6]; some rats, dose higher than 4-fold ED50): convulsions and even died
- fraction unbound at 9 h, 654 ng ml^−1 [7, 12]: 0.181
- fraction unbound at 9 h [7, 13]: 0.15
- fraction unbound at 9 h [7, 14]: 0.178
- fraction unbound at 9 h [7, 15]: 0.17
- CLint, in vitro ([8]; mouse liver microsomes): 629 ml min g^−1 protein
- metabolic stability (in words) ([8]; mouse liver microsomes): not metabolically stable
- CLint, in vitro ([8]; mouse liver microsomes, Cprotein 0.33 mg ml^−1): 629 ± 25.7 ml min^−1 g^−1 protein
- extrapolated CLhep in vivo ([8]; mouse, from liver microsomes): 2.8 ± 0.0 mL/min
- extrapolated CLint, in vivo ([8]; mouse, from liver microsomes): 42.4 ± 1.7 mL/min
- half-life ([8]; mouse, liver microsomes, pH 7.4, mouse liver microsomes, Cprotein 0.33 mg ml^−1): < 5 min
- time for complete excretion from kidney ([9]; i.v. 4.2 mg kg^−1): ≤ 24 h
- time for elimination from the brain ([9]; i.v. 4.2 mg kg^−1): ≤ 3 h
- concentration in the brain ([9]; i.v. 4.2 mg kg^−1, at the onset): 2570 ng/mL
- time for clearance from tissues ([9]; i.v. 4.2 mg kg^−1 ET-26-HCl): around 3 h
- tissues with the highest concentration ([9]; i.v. 4.2 mg kg^−1 ET-26-HCl): Adipose tissue and liver
- ED50 [10]: 1.045 mg/kg
